Source: ChEMBL document CHEMBL3045477, “Dysfunctionality of the xylem in Olea europaea L. Plants associated with the infection process by Verticillium dahliae Kleb. Role of phenolic compounds in plant defense mechanism” (J Agric Food Chem, 2007)
Values after ≈ are worked out from the molar mass of the structure shown.

tested on: Verticillium dahliae; test: Antifungal activity against Verticillium dahliae assessed as inhibition of mycelial radial growth measured after 350 hr; format: functional, organism-based

Compared with `O=C(O)/C=C/c1ccc(O)cc1` [COUMARIC ACID], `OCCc1ccc(O)cc1` [TYROSOL] is 2.2-fold lower in IC50: 1470 µg/mL (≈ 8950 µM) for the first, 660 µg/mL (≈ 4780 µM) for the second.

Going from `C/C=C1/[C@H](O[C@@H]2O[C@H](CO)[C@@H](O)[C@H](O)[C@H]2O)OC=C(C(=O)OC)[C@H]1CC(=O)OCCc1ccc(O)c(O)c1` [OLEUROPEIN] to `O=c1cc(-c2ccc(O)c(O)c2)oc2cc(O[C@@H]3O[C@H](CO)[C@@H](O)[C@H](O)[C@H]3O)cc(O)c12` [GALUTEOLIN], the IC50 rises from 170 µg/mL (≈ 315 µM) to 260 µg/mL (≈ 580 µM) (1.5-fold).

Going from `C[C@@H]1O[C@@H](OC[C@H]2O[C@@H](Oc3c(-c4ccc(O)c(O)c4)oc4cc(O)cc(O)c4c3=O)[C@H](O)[C@@H](O)[C@@H]2O)[C@H](O)[C@H](O)[C@H]1O` [RUTIN] to `O=c1c(O)c(-c2ccc(O)c(O)c2)oc2cc(O)cc(O)c12` [QUERCETIN], the IC50 falls from 80 µg/mL (≈ 131 µM) to 6 µg/mL (≈ 19.9 µM) (13-fold).

Compared with `O=c1cc(-c2ccc(O)c(O)c2)oc2cc(O)cc(O)c12` [LUTEOLIN], `Oc1cc(O)c2c(c1)OC(c1ccc(O)c(O)c1)C(O)C2` (stereo not drawn) [CATECHIN] is 300-fold higher in IC50: 7 µg/mL (≈ 24.5 µM) for the first, 2100 µg/mL (≈ 7230 µM) for the second.
